Assays:
Type in all cases: cell-based
RXF 393 = assay: Cytotoxicity against human RXF393 cells assessed as effect on cell growth at 10 uM incubated for 48 hrs by sulforhodamine B assay; details: rxf 393, 48 h
Malme-3M = assay: Cytotoxicity against human MALME-3M cells assessed as effect on cell growth at 10 uM incubated for 48 hrs by sulforhodamine B assay
SK-OV-3 = assay: Cytotoxicity against human SKOV3 cells assessed as effect on cell growth at 10 uM incubated for 48 hrs by sulforhodamine B assay; details: sk-ov-3, 48 h
DU-145 = assay: Cytotoxicity against human DU145 cells assessed as effect on cell growth at 10 uM incubated for 48 hrs by sulforhodamine B assay; details: du-145, 48 h
OVCAR-4 = assay: Cytotoxicity against human OVCAR4 cells assessed as effect on cell growth at 10 uM incubated for 48 hrs by sulforhodamine B assay; details: ovcar-4, 48 h
TK-10 = assay: Cytotoxicity against human TK10 cells assessed as effect on cell growth at 10 uM incubated for 48 hrs by sulforhodamine B assay; details: tk-10, 48 h
ACHN = assay: Cytotoxicity against human ACHN cells assessed as effect on cell growth at 10 uM incubated for 48 hrs by sulforhodamine B assay
MCF7 = assay: Cytotoxicity against human MCF7 cells assessed as effect on cell growth at 10 uM incubated for 48 hrs by sulforhodamine B assay; details: mcf7, 48 h
SW-620 = assay: Cytotoxicity against human SW620 cells assessed as effect on cell growth at 10 uM incubated for 48 hrs by sulforhodamine B assay; details: sw-620, 48 h
A498 = assay: Cytotoxicity against human A498 cells assessed as effect on cell growth at 10 uM incubated for 48 hrs by sulforhodamine B assay; details: a498, 48 h
COLO 205 = assay: Cytotoxicity against human COLO205 cells assessed as effect on cell growth at 10 uM incubated for 48 hrs by sulforhodamine B assay; details: colo 205, 48 h
NCI-H460 = assay: Cytotoxicity against human NCI-H460 cells assessed as effect on cell growth at 10 uM incubated for 48 hrs by sulforhodamine B assay; details: nci-h460, 48 h
EKVX = assay: Cytotoxicity against human EKVX cells assessed as effect on cell growth at 10 uM incubated for 48 hrs by sulforhodamine B assay
SK-MEL-28 = assay: Cytotoxicity against human SK-MEL-28 cells assessed as effect on cell growth at 10 uM incubated for 48 hrs by sulforhodamine B assay; details: sk-mel-28, 48 h
K562 = assay: Cytotoxicity against human K562 cells assessed as effect on cell growth at 10 uM incubated for 48 hrs by sulforhodamine B assay; details: k562, 48 h
MDA-MB-231 = assay: Cytotoxicity against human MDA-MB-231 cells assessed as effect on cell growth at 10 uM incubated for 48 hrs by sulforhodamine B assay; details: mda-mb-231, 48 h
786-0 = assay: Cytotoxicity against human 786-0 cells assessed as effect on cell growth at 10 uM incubated for 48 hrs by sulforhodamine B assay; details: 786-0, 48 h
NCI-H322M = assay: Cytotoxicity against human NCI-H322M cells assessed as effect on cell growth at 10 uM incubated for 48 hrs by sulforhodamine B assay
OVCAR-8 = assay: Cytotoxicity against human OVCAR8 cells assessed as effect on cell growth at 10 uM incubated for 48 hrs by sulforhodamine B assay; details: ovcar-8, 48 h
OVCAR-5 = assay: Cytotoxicity against human OVCAR5 cells assessed as effect on cell growth at 10 uM incubated for 48 hrs by sulforhodamine B assay; details: ovcar-5, 48 h

Measured: Activity

COc1ccc(CN2C(=O)[C@@H]3C/C(=C\N(C)C)C(=O)N3C2N(C)C)c(OC)c1 (stereo not given in full)
Non-Toxic: all assays above

O=C(NCCc1ccccc1)[C@@H]1CCC(=O)N1Cc1ccc(Br)cc1
Non-Toxic: all assays above

O=C(NCc1ccc(Cl)cc1Cl)[C@@H]1CCC(=O)N1Cc1ccc(Cl)cc1
Non-Toxic: all assays above

O=C(Nc1ccc(Cl)cc1Cl)[C@@H]1CCC(=O)N1Cc1ccccc1Cl
Non-Toxic: all assays above

O=C(NCc1ccccc1Cl)[C@@H]1CCC(=O)N1Cc1ccccc1Cl
Non-Toxic: all assays above

O=C(NCc1ccccc1Cl)[C@@H]1CCC(=O)N1c1ccccc1
Non-Toxic: all assays above

COc1ccc(NC(=O)[C@@H]2C/C(=C\N(C)C)C(=O)N2)cc1
Non-Toxic: all assays above
